Patent US20200060276A1, “THIAZOLE COMPOUND AND HERBICIDE” (OAT Agrio Co., Ltd., priority 2017, published 2020)

Columns and labels:
Assay type in all cases: in vivo
[1] = system: Echinochloa crus-galli (L.) P. Beauv. var. formosensis Ohwi; test: Test for Herbicidal Effect in Flooding Treatment (#1), ECHDG; conditions: flooding treatment #1
How it was run: (§1)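 Flooded soil in cups was seeded 24 h after flooding, then treated with compound in acetone diluted with Tween 80-containing water, dropped onto the water surface at 2 kg/ha. After growth in a glasshouse, growth inhibition was scored visually on day 21 on a 0 (<10%) to 5 (≥90% or complete withering) scale.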

Monochoria vaginalis = test: Test for Herbicidal Effect in Flooding Treatment (#1), MONVA; conditions: flooding treatment #1
Procedure: (#1) Test for Herbicidal Effect in Flooding Treatment: Styrol cups each having an opening diameter of 8 cm (about 52 cm^2) were respectively filled with soil (45 ml) which had been passed through a sieve (2 mm). Water (about 115 ml) was mixed with the soil such that the soil was flooded. After the soil stood still for 24 hours, Monochoria vaginalis, Echinochloa crus-galli (L.) P. Beauv. var. formosensis Ohwi, Cyperus difformis (umbrella sedge), and Scirpus juncoides were seeded. Each of the compounds of the present invention was dissolved in acetone, and the obtained product was then diluted with water containing Tween 80®. Each of the resultant chemical solutions was dropped on the entire surface of an associated one of treatment sections, so that each section was treated with 1 ml of the respective chemical solution (a dose of 2 kg/ha). After the treatment, the plants were grown in a glasshouse. On day 21, a survey was conducted on the herbicidal activity by visual observation, and evaluation was made according to the following criteria. 0: Growth inhibition effect is less than 10%. 1: Growth inhibition effect is equal to or greater than 10%, and less than 30%. 2; Growth inhibition effect is equal to or greater than 30%, and less than 50%. 3: Growth inhibition effect equal to or greater than 50%, and less than 70%. 4: Growth inhibition effect is equal to or greater than 70%, and less than 90%. 5: Growth inhibition effect is equal to or greater than 90%, or complete withering is achieved. ECHDG=Echinochloa crus-galli (L.) P. Beauv. var. formosensis Ohwi, MONVA=Monochoria vaginalis, SCIJU=Scirpus juncoides, CYMIC=Cyperus microiria.

Scirpus juncoides = test: Test for Herbicidal Effect in Flooding Treatment (#1), SCIJU; conditions: flooding treatment #1
How it was run: as §1

[2] = system: Echinochloa crus-galli (L.) P. Beauv. var. formosensis Ohwi; test: Test for Herbicidal Effect in Flooding Treatment (#2), ECHDG at 2-2.5 leaf stage; conditions: flooding treatment #2, 2-2.5 leaf stage
How it was run: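 Flooded muddy soil was seeded with the weed, and at 2–2.5 leaf stage compound in acetone/Tween 80 water was dropped on the water surface at 0.2 kg/ha. Plants were kept in a glasshouse and scored visually on day 21 from 0 (<10% growth inhibition) to 5 (≥90% or complete withering).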

Compound	ECHDG #1 herbicidal effect (growth inhibition rating 0-5) [1]	MONVA #1 herbicidal effect (growth inhibition rating 0-5) (Monochoria vaginalis)	SCIJU #1 herbicidal effect (growth inhibition rating 0-5) (Scirpus juncoides)	ECHDG (2-2.5L) #2 herbicidal effect (growth inhibition rating 0-5) [2]
[O-][S+](Cc1ccccc1OC(F)F)c1ncc(Cl)s1 (stereo not drawn) [Compound 1B-2]	5 (Growth inhibition effect is equal to or greater than 90%, or complete withering is achieved)	5 (Growth inhibition effect is equal to or greater than 90%, or complete withering is achieved)	5 (Growth inhibition effect is equal to or greater than 90%, or complete withering is achieved)	5 (Growth inhibition effect is equal to or greater than 90%, or complete withering is achieved)
[O-][S+](Cc1c(F)cccc1OC(F)F)c1ncc(Cl)s1 (stereo not drawn) [Compound 1B-3]	5 (Growth inhibition effect is equal to or greater than 90%, or complete withering is achieved)	5 (Growth inhibition effect is equal to or greater than 90%, or complete withering is achieved)	5 (Growth inhibition effect is equal to or greater than 90%, or complete withering is achieved)	5 (Growth inhibition effect is equal to or greater than 90%, or complete withering is achieved)
[O-][S+](Cc1c(OCC(F)F)cccc1C(F)(F)F)c1ncc(Cl)s1 (stereo not drawn) [Compound 1B-8]	5 (Growth inhibition effect is equal to or greater than 90%, or complete withering is achieved)	5 (Growth inhibition effect is equal to or greater than 90%, or complete withering is achieved)	5 (Growth inhibition effect is equal to or greater than 90%, or complete withering is achieved)	5 (Growth inhibition effect is equal to or greater than 90%, or complete withering is achieved)
[O-][S+](Cc1c(Cl)cccc1OCC(F)(F)F)c1ncc(Cl)s1 (stereo not drawn) [Compound 1B-10]	5 (Growth inhibition effect is equal to or greater than 90%, or complete withering is achieved)	5 (Growth inhibition effect is equal to or greater than 90%, or complete withering is achieved)	5 (Growth inhibition effect is equal to or greater than 90%, or complete withering is achieved)	5 (Growth inhibition effect is equal to or greater than 90%, or complete withering is achieved)
[O-][S+](Cc1c(F)cccc1OCC(F)(F)C(F)F)c1ncc(Cl)s1 (stereo not drawn) [Compound 1B-12]	5 (Growth inhibition effect is equal to or greater than 90%, or complete withering is achieved)	5 (Growth inhibition effect is equal to or greater than 90%, or complete withering is achieved)	5 (Growth inhibition effect is equal to or greater than 90%, or complete withering is achieved)	5 (Growth inhibition effect is equal to or greater than 90%, or complete withering is achieved)
[O-][S+](Cc1c(F)cccc1OCC(F)(F)C(F)F)c1ncc(Cl)s1 (stereo not drawn) [Compound 1B-13]	5 (Growth inhibition effect is equal to or greater than 90%, or complete withering is achieved)	5 (Growth inhibition effect is equal to or greater than 90%, or complete withering is achieved)	5 (Growth inhibition effect is equal to or greater than 90%, or complete withering is achieved)	2 (Growth inhibition effect is equal to or greater than 30%, and less than 50%)
CC(c1c(F)cccc1OC(F)F)[S+]([O-])c1ncc(Cl)s1 (stereo not drawn) [Compound 1B-16]	5 (Growth inhibition effect is equal to or greater than 90%, or complete withering is achieved)	5 (Growth inhibition effect is equal to or greater than 90%, or complete withering is achieved)	5 (Growth inhibition effect is equal to or greater than 90%, or complete withering is achieved)	3 (Growth inhibition effect equal to or greater than 50%, and less than 70%)
COc1cccc(Cl)c1C[S+]([O-])c1ncc(Br)s1 (stereo not drawn) [Compound 1B-17]	5 (Growth inhibition effect is equal to or greater than 90%, or complete withering is achieved)	3 (Growth inhibition effect equal to or greater than 50%, and less than 70%)	5 (Growth inhibition effect is equal to or greater than 90%, or complete withering is achieved)	5 (Growth inhibition effect is equal to or greater than 90%, or complete withering is achieved)
[O-][S+](Cc1c(F)cccc1OC(F)F)c1ncc(Br)s1 (stereo not drawn) [Compound 1B-19]	5 (Growth inhibition effect is equal to or greater than 90%, or complete withering is achieved)	5 (Growth inhibition effect is equal to or greater than 90%, or complete withering is achieved)	5 (Growth inhibition effect is equal to or greater than 90%, or complete withering is achieved)	5 (Growth inhibition effect is equal to or greater than 90%, or complete withering is achieved)
[O-][S+](Cc1c(Cl)cccc1OC(F)F)c1ncc(Br)s1 (stereo not drawn) [Compound 1B-20]	5 (Growth inhibition effect is equal to or greater than 90%, or complete withering is achieved)	5 (Growth inhibition effect is equal to or greater than 90%, or complete withering is achieved)	5 (Growth inhibition effect is equal to or greater than 90%, or complete withering is achieved)	5 (Growth inhibition effect is equal to or greater than 90%, or complete withering is achieved)
[O-][S+](Cc1c(Cl)cccc1OC(F)(F)C(F)(F)F)c1ncc(Br)s1 (stereo not drawn) [Compound 1B-24]	5 (Growth inhibition effect is equal to or greater than 90%, or complete withering is achieved)	5 (Growth inhibition effect is equal to or greater than 90%, or complete withering is achieved)	5 (Growth inhibition effect is equal to or greater than 90%, or complete withering is achieved)	5 (Growth inhibition effect is equal to or greater than 90%, or complete withering is achieved)
[O-][S+](Cc1c(F)cccc1OCC(F)(F)C(F)F)c1ncc(Br)s1 (stereo not drawn) [Compound 1B-26]	5 (Growth inhibition effect is equal to or greater than 90%, or complete withering is achieved)	5 (Growth inhibition effect is equal to or greater than 90%, or complete withering is achieved)	5 (Growth inhibition effect is equal to or greater than 90%, or complete withering is achieved)	4 (Growth inhibition effect is equal to or greater than 70%, and less than 90%)
